In brackets after ≈: the same amount, converted by molar mass.
Assays:
E. coli DNA gyrase [1] = biological target: T1, E. coli DNA gyrase (Escherichia coli, UniProt P0AES6); test: Test for evaluating the activity of inhibiting E. coli DNA gyrase enzyme (Method 1, supercoiling, Inspiralis enzyme); format: biochemical; details: Method 1; read-out: E. Coli Gyrase supercoiling IC50
T1 construct: made in house; host or cells: E. coli BL21 (DE3)
Experimental: Test Example 1-1 Test for Evaluating the Activity of Inhibiting E. coli DNA Gyrase Enzyme (Method 1)
The enzymatic activity of E. coli DNA gyrase was measured by a method comprising reacting DNA gyrase and its substrate, relaxed pBR322 (Inspiralis), in the presence of ATP and detecting the post-reaction supercoiled pBR322/relaxed pBR322 ratio with H19 (Profoldin).
Specifically, to 1 ng/μL of relaxed pBR322, E. coli DNA gyrase enzyme (Inspiralis) was added at a final concentration of 0.006 U/μL and the mixture was incubated for 60 minutes at room temperature. This reaction was carried out in 20 mmol/L tris-HCl buffered solution (pH 8.0) comprising 0.5 mmol/L ATP, 0.005% bridge 35, 35 mmol/L ammonium acetate, 8 mmol/L magnesium chloride, 4.6% glycerol, and 1 mmol/L dithiothreitol. To the reaction mixture, H19 was added to bring the reaction to an end; thereafter, the supercoiled pBR322/relaxed pBR322 ratio was detected at excitation wavelength/emission wavelength=485 nm/535 nm. An inhibition curve was obtained by allowing the analyte compound to be present at varying concentrations during the reaction described above. […] The test results of interest are shown in [Table 20-1] and [Table 20-2].

[2] = tested on: N. gonorrhoeae ATCC 49226; test: Test for evaluating antibacterial activity (N. gonorrhoeae), broth microdilution MIC; format: cell-based; details: Neisseria gonorrhoeae, ATCC49226; 35° C., 24 hours, gonococcal broth
Experimental: Minimum inhibitory concentration (MIC) was measured using the broth microdilution method described below in accordance with a modification of the method of Geers et al. (Antimicrob. Agents. Chemother. (1989), 33, 233-234).
After sterilization, BD. Difco supplement C was added to give a final concentration of 1%, whereby a gonococcal broth was prepared.
Bacterial cells under test were cultured overnight on a chocolate II agar medium, scraped off and suspended at a concentration equivalent to McFarland 0.5 turbidity; the suspension thus obtained was diluted 5 folds to give a liquid inoculum. The inoculum (0.005 mL) was inoculated on a gonococcal broth containing the analyte compound and cultured at 35° C. for 24 hours. A minimum drug concentration at which no bacterial growth was macroscopically visible was designated MIC.

E. Coli ATCC 25922 = test: Test for evaluating antibacterial activity (E. coli), broth microdilution MIC; format: cell-based; details: Escherichia coli, ATCC25922; 35° C., 18 hours, cation-adjusted Mueller-Hinton medium
In short: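 Broth microdilution per modified CLSI method in cation-adjusted Mueller-Hinton medium. Inoculum from overnight heart infusion agar growth, McFarland 0.5 suspension diluted 10-fold; incubation 35° C for 18 hours. MIC taken as lowest drug concentration with no visible growth.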

E. coli DNA gyrase [3] = biological target: T1, E. coli DNA gyrase; test: Test for evaluating the activity of inhibiting E. coli DNA gyrase enzyme (Method 2, supercoiling, recombinant gyrA/gyrB complex); format: biochemical
In short: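 Recombinant E. coli gyrA/gyrB complex (His-tagged, BL21(DE3)-expressed, Ni-NTA purified; 0.135 nmol/mL final) supercoiled relaxed pBR322 (1 ng/μL) with 0.5 mmol/L ATP in pH 8.0 Tris buffer, 60 min at room temperature. H19 stopped the reaction; supercoiled/relaxed ratio read at 485/535 nm, inhibition curves built from varying compound concentrations.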

[4] = Method 2, read-out: E. Coli Gyrase supercoiling IC50

Row | Compound | IC50 (E. coli DNA gyrase [1]) | MIC [2] | MIC (E. Coli ATCC 25922) | IC50 (E. coli DNA gyrase [3]) | IC50 (E. coli DNA gyrase [3]; [4])
1 | CNc1cccc2cc(C(=O)N[C@@H](Cc3c[nH]cn3)C(=O)O)c(=O)[nH]c12 [Example 13, N-[8-(methylamino)-2-oxo-1,2-dihydroquinoline-3-carbonyl]-L-histidine-trifluoroacetate] | 31700 nM | – | – | – | –
2 | CNc1cc(F)cc2c(NCCCN)c(C(=O)Nc3ccc(C(=O)O)cc3)c(=O)[nH]c12.O=CO [Example 132, 4-({4-[(3-aminopropyl)amino]-6-fluoro-8-(methylamino)-2-oxo-1,2-dihydroquinoline-3-carbonyl}amino)benzoic acid-formate] | – | 0.25 µg/mL | > 8 µg/mL | 0.52 nM | –
3 | CNc1cc(F)cc2c(NCC3CNC3)c(C(=O)Nc3ccc(C(=O)O)cc3)c(=O)[nH]c12.O=CO [Example 135, 4-{[4-{[(azetidine-3-yl)methyl]amino}-6-fluoro-8-(methylamino)-2-oxo-1,2-dihydroquinoline-3-carbonyl]amino}benzoic acid-formate] | – | 0.12 µg/mL | > 16 µg/mL | 0.66 nM | –
4 | CNc1cc(F)cc2c(O)c(C(=O)Nc3cncnc3)c(=O)[nH]c12 [Example 138, 6-fluoro-4-hydroxy-8-(methylamino)-2-oxo-N-(pyrimidine-5-yl)-1,2-dihydroquinoline-3-carboxamide] | – | 0.06 µg/mL (≈ 0.182 µM) | 32 µg/mL (≈ 97.2 µM) | – | 129 nM
5 | CNc1cc(F)cc2cc(C(=O)Nc3ccc(-c4noc(=O)[nH]4)cc3)c(=O)[nH]c12 [Example 144, 6-fluoro-8-(methylamino)-2-oxo-N-[4-(5-oxo-4,5-dihydro-1,2,4-oxadiazole-3-yl)phenyl]-1,2-dihydroquinoline-3-carboxamide] | – | 0.004 µg/mL (≈ 0.0101 µM) | > 8 µg/mL | – | 0.48 nM
6 | CNc1cc(F)cc2cc(C(=O)Nc3ccc(C(=O)NS(C)(=O)=O)cc3)c(=O)[nH]c12 [Example 145, 6-fluoro-N-{4-[(methanesulfonyl)carbamoyl]phenyl}-8-(methylamino)-2-oxo-1,2-dihydroquinoline-3-carboxamide] | – | 0.06 µg/mL (≈ 0.139 µM) | > 32 µg/mL | – | 0.19 nM
7 | CNc1cc(F)cc2c(O)c(C(=O)Nc3ccc(C(=O)NS(C)(=O)=O)cc3)c(=O)[nH]c12 [Example 147, 6-Fluoro-4-hydroxy-N-[4-[(methanesulfonyl)carbamoyl]phenyl]-8-(methylamino)-2-oxo-1,2-dihydroquinoline-3-carboxamide] | – | 0.008 µg/mL (≈ 0.0178 µM) | > 32 µg/mL | – | 1.75 nM
8 | CNc1cc(F)cc2cc(C(=O)Nc3ccc(-c4nnn[nH]4)cc3)c(=O)[nH]c12 [Example 149, 6-fluoro-8-(methylamino)-2-oxo-N-[4-(1H-tetrazole-5-yl)phenyl]-1,2-dihydroquinoline-3-carboxamide] | – | 0.03 µg/mL (≈ 0.0791 µM) | > 8 µg/mL | – | 0.55 nM
9 | CNc1cc(F)cc2c(O)c(C(=O)Nc3ccc(C(=N)N)cc3)c(=O)[nH]c12 [Example 150, N-(4-Carbamimidoylphenyl)-6-fluoro-4-hydroxy-8-(methylamino)-2-oxo-1,2-dihydroquinoline-3-carboxamide] | – | 0.03 µg/mL (≈ 0.0812 µM) | > 16 µg/mL | – | 89.3 nM
10 | CNc1cc(F)cc2cc(C(=O)Nc3ccc(S(C)(=N)=O)cc3)c(=O)[nH]c12 (stereo not shown) [Example 151, 6-Fluoro-N-[4-(S-methanesulfonimidoyl)phenyl]-8-(methylamino)-2-oxo-1,2-dihydroquinoline-3-carboxamide] | – | 0.5 µg/mL (≈ 1.29 µM) | > 16 µg/mL | 21.4 nM | –
11 | CNc1cc(F)cc2c(O)c(C(=O)Nc3ccc(C(=O)OC)cc3CN3CCCCC3)c(=O)[nH]c12 [Example 152, Methyl 4-[[6-fluoro-4-hydroxy-8-(methylamino)-2-oxo-1,2-dihydroquinoline-3-carbonyl]amino]-3-[(piperidin-1-yl)methyl]benzoate] | – | 4 µg/mL (≈ 8.29 µM) | > 16 µg/mL | – | 1230 nM
12 | CNc1cc(F)cc2cc(C(=O)Nc3ccc(NC(=O)NS(C)(=O)=O)cc3)c(=O)[nH]c12 [Example 154, 6-fluoro-N-(4-{[(methanesulfonyl)carbamoyl]amino}phenyl)-8-(methylamino)-2-oxo-1,2-dihydroquinoline-3-carboxamide] | – | 0.06 µg/mL (≈ 0.134 µM) | > 16 µg/mL | – | 9.78 nM
13 | CNc1cc(F)cc2c(O)c(C(=O)Nc3ccc(C(=O)O)cc3CN3CCOCC3)c(=O)[nH]c12 [Example 155, 4-[[6-Fluoro-4-hydroxy-8-(methylamino)-2-oxo-1,2-dihydroquinoline-3-carbonyl]amino]-3-[(morpholin-4-yl)methyl]benzoic Acid] | – | 0.015 µg/mL (≈ 0.0319 µM) | > 32 µg/mL | – | 109 nM
14 | CNc1cc(F)cc2c(O)c(C(=O)Nc3ccc(C(=O)O)cc3CN3CCC3)c(=O)[nH]c12.O=CO [Example 156, 3-[(azetidine-1-yl)methyl]-4-{[6-fluoro-4-hydroxy-8-(methylamino)-2-oxo-1,2-dihydroquinoline-3-carbonyl]amino}benzoic acid-formate] | – | 0.5 µg/mL | 32 µg/mL | 13.4 nM | –
15 | CNc1cc(F)cc2c(O)c(C(=O)Nc3ccc(C(=O)O)cc3CN3CCCC3)c(=O)[nH]c12.O=CO [Example 157, 4-{[6-fluoro-4-hydroxy-8-(methylamino)-2-oxo-1,2-dihydroquinoline-3-carbonyl]amino}-3-[(pyrrolidine-1-yl)methyl]benzoic acid-formate] | – | 0.12 µg/mL | 16 µg/mL | 5.61 nM | –
16 | CNc1cc(F)cc2cc(C(=O)Nc3ccc(C(O)C(N)=O)cc3)c(=O)[nH]c12 (stereo not shown) [Example 158, N-[4-(2-amino-1-hydroxy-2-oxoethyl)phenyl]-6-fluoro-8-(methylamino)-2-oxo-1,2-dihydroquinoline-3-carboxamide] | – | 0.03 µg/mL (≈ 0.0781 µM) | > 16 µg/mL | – | 7.78 nM
17 | CNc1cc(F)cc2cc(C(=O)Nc3ccc(C4OC(=O)NC4=O)cc3)c(=O)[nH]c12 (stereo not shown) [Example 159, N-[4-(2,4-Dioxo-1,3-oxazolidin-5-yl)phenyl]-6-fluoro-8-(methylamino)-2-oxo-1,2-dihydroquinoline-3-carboxamide] | – | 0.002 µg/mL (≈ 0.00487 µM) | > 16 µg/mL | – | 1.08 nM
18 | O=C(O)c1ccc(NC(=O)c2cc3cccc(O)c3[nH]c2=O)cc1 [Example 160, 4-[(8-Hydroxy-2-oxo-1,2-dihydroquinoline-3-carbonyl)amino]benzoic Acid] | – | > 4 µg/mL | > 32 µg/mL | – | 11700 nM
19 | CCc1cccc2cc(C(=O)Nc3ccc(C(=O)O)cc3)c(=O)[nH]c12 [Example 161, 4-[(8-ethyl-2-oxo-1,2-dihydroquinoline-3-carbonyl)amino]benzoic acid] | – | > 4 µg/mL | > 32 µg/mL | – | 2230 nM
20 | CNc1cc(F)cc2cc(C(=O)Oc3ccc(C(=O)O)cc3)c(=O)[nH]c12 [Example 162, 4-{[6-fluoro-8-(methylamino)-2-oxo-1,2-dihydroquinoline-3-carbonyl]oxy}benzoic acid] | – | > 1 µg/mL | > 32 µg/mL | – | 3450 nM
21 | CNc1cc(F)cc2cc(CNc3ccc(C(=O)O)cc3)c(=O)[nH]c12 [Example 163, 4-([[6-Fluoro-8-(methylamino)-2-oxo-1,2-dihydroquinoline-3-yl]methyl]amino)benzoic Acid] | – | > 1 µg/mL | > 32 µg/mL | – | 2100 nM
22 | CNc1cc(F)cc2c(O)c(C(=O)Nc3ccc(C(=O)NS(=O)(=O)N(C)C)cc3CN3CCCCC3)c(=O)[nH]c12 [Example 164, N-{4-[(dimethyl-sulfamoyl)carbamoyl]-2-[(piperidine-1-yl)methyl]phenyl}-6-fluoro-4-hydroxy-8-(methylamino)-2-oxo-1,2-dihydroquinoline-3-carboxamide] | – | 0.12 µg/mL (≈ 0.209 µM) | 64 µg/mL (≈ 111 µM) | – | 4.44 nM
23 | O=C(O)c1ccc(NC(=O)c2cc3ccccc3[nH]c2=O)cc1 [Reference Example 1, 4-[(2-Oxo-1,2-dihydroquinoline-3-carbonyl)amino]benzoic Acid, reference compound] | – | > 1 µg/mL | > 64 µg/mL | – | 7010 nM
